Columns and labels:
Format in all cases: in vivo
[1] = test system: fall armyworm (Spodoptera frugiperda); experiment: Test B: control of fall armyworm on corn (maize) plant, foliar spray; details: sprayed at 50 ppm
Method: Test compounds were formulated using a solution containing 10% acetone, 90% water and 300 ppm X-77™ Spreader Lo-Foam Formula non-ionic surfactant containing alkylarylpolyoxyethylene, free fatty acids, glycols and isopropanol (Loveland Industries, Inc. Greeley, Colo., USA). The formulated compounds were applied in 1 mL of liquid through a SUJ2 atomizer nozzle with ⅛ JJ custom body (Spraying Systems Co. Wheaton, Ill., USA) positioned 1.27 cm (0.5 inches) above the top of each test unit. All experimental compounds in these tests were sprayed at 50 ppm, and the test was replicated three times. After spraying of the formulated test compound, each test unit was allowed to dry for 1 h and then a black, screened cap was placed on top. The test units were held for 6 days in a growth chamber at 25° C. and 70% relative humidity. Plant feeding damage was then visually assessed based on foliage consumed, and a pest mortality rating was also counted and calculated for each test unit.
For evaluating control of fall armyworm (Spodoptera frugiperda) the test unit consisted of a small open container with a 4-5-day-old corn (maize) plant inside. This was pre-infested (using a core sampler) with 10-15 1-day-old larvae on a piece of insect diet. Test compounds were formulated and sprayed at 50 ppm as described for Test A and replicated three times. After spraying, the test units were maintained in a growth chamber and then the control efficacy was rated for each test unit as described for Test A.

[2] = test system: diamondback moth (Plutella xylostella); experiment: Test A: control of diamondback moth on radish plant, foliar spray; details: sprayed at 50 ppm, held 6 days
Summary of the method: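 Radish plants 12–14 days old, pre-infested with about 50 neonate larvae, sprayed at 50 ppm in 10% acetone/water with 300 ppm X-77 surfactant; three replicates. After 6 days at 25° C and 70% RH, feeding damage was scored visually and mortality counted.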

[3] = test system: western flower thrips (Frankliniella occidentalis); experiment: Test E: control of western flower thrips on Soleil bean plant, contact and/or systemic; details: held 6 days
Summary of the method: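 5–7-day-old Soleil bean plants were sprayed at 250 or 50 ppm in 10% acetone/90% water with 300 ppm X-77 surfactant, three replicates. After drying 1 h, 22–27 adult thrips were added per unit. Mortality and plant damage were rated after 6 days at 25 °C and 45–55% RH.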

Measured: levels of control efficacy (20% or less feeding damage or 80% or more mortality)

C[S+]([O-])CCNC(=O)c1ccc(C2=NOC(c3cc(C(F)(F)F)cc(C(F)(F)F)c3)(C(F)(F)F)C2)c2ccccc12 (stereo not drawn) [Compound 79]
very good to excellent: [1] | [2] | [3]; sprayed at 50 ppm | [3]; sprayed at 250 ppm

CSCCCNC(=O)c1ccc(C2=NOC(c3cc(Cl)cc(Cl)c3)(C(F)(F)F)C2)c2ccccc12 (stereo not drawn) [Compound 22]
very good to excellent: [1] | [2] | [3]; sprayed at 50 ppm | [3]; sprayed at 250 ppm

CSCC(C)(C)NC(=O)c1ccc(C2=NOC(c3cc(Cl)cc(Cl)c3)(C(F)(F)F)C2)c2ccccc12 (stereo not drawn) [Compound 27]
very good to excellent: [1] | [2] | [3]; sprayed at 50 ppm | [3]; sprayed at 250 ppm

CC(C)(C)CNC(=O)CNC(=O)c1ccc(C2=NOC(c3cc(Cl)cc(C(F)(F)F)c3)(C(F)(F)F)C2)c2ccccc12 (stereo not drawn) [Compound 120]
very good to excellent: [1] | [2] | [3]; sprayed at 50 ppm | [3]; sprayed at 250 ppm

CC(C)NC(=O)C(C)NC(=O)c1ccc(C2=NOC(c3cc(C(F)(F)F)cc(C(F)(F)F)c3)(C(F)(F)F)C2)c2ccccc12 (stereo not drawn) [Compound 87]
very good to excellent: [1] | [2] | [3]; sprayed at 250 ppm

CC(C)CNC(=O)CNC(=O)c1ccc(C2=NOC(c3cc(C(F)(F)F)cc(C(F)(F)F)c3)(C(F)(F)F)C2)c2ccccc12 (stereo not drawn) [Compound 102]
very good to excellent: [1] | [2] | [3]; sprayed at 50 ppm

CC(C)NC(=O)CNC(=O)c1ccc(C2=NOC(c3cc(Cl)cc(Cl)c3)(C(F)(F)F)C2)c2ccccc12 (stereo not drawn) [Compound 5]
very good to excellent: [1] | [2] | [3]; sprayed at 50 ppm | [3]; sprayed at 250 ppm

C[S+]([O-])CCNC(=O)c1ccc(C2=NOC(c3cc(F)cc(C(F)(F)F)c3)(C(F)(F)F)C2)c2ccccc12 (mixture of isomers) [Compound 133]
very good to excellent: [1] | [2] | [3]; sprayed at 50 ppm | [3]; sprayed at 250 ppm

CCNC(=O)CNC(=O)c1ccc(C2=NOC(c3cc(Cl)cc(C(F)(F)F)c3)(C(F)(F)F)C2)c2ccccc12 (stereo not drawn) [Compound 119]
very good to excellent: [1] | [2] | [3]; sprayed at 50 ppm | [3]; sprayed at 250 ppm

CNC(=O)CNC(=O)c1ccc(C2=NOC(c3cc(C(F)(F)F)cc(C(F)(F)F)c3)(C(F)(F)F)C2)c2ccccc12 (stereo not drawn) [Compound 105]
very good to excellent: [1] | [2] | [3]; sprayed at 50 ppm

CCNC(=O)C(C)NC(=O)c1ccc(C2=NOC(c3cc(C(F)(F)F)cc(C(F)(F)F)c3)(C(F)(F)F)C2)c2ccccc12 (mixture of isomers) [Compound 96]
very good to excellent: [1] | [2] | [3]; sprayed at 250 ppm

CC(NC(=O)c1ccc(C2=NOC(c3cc(C(F)(F)F)cc(C(F)(F)F)c3)(C(F)(F)F)C2)c2ccccc12)C(=O)NCC(F)(F)F (stereo not drawn) [Compound 85]
very good to excellent: [1] | [2] | [3]; sprayed at 50 ppm | [3]; sprayed at 250 ppm

CCNC(=O)C(C)NC(=O)c1ccc(C2=NOC(c3cc(F)cc(C(F)(F)F)c3)(C(F)(F)F)C2)c2ccccc12 (mixture of isomers) [Compound 137]
very good to excellent: [1] | [2] | [3]; sprayed at 50 ppm

CS(=O)(=O)CCNC(=O)c1ccc(C2=NOC(c3cc(Cl)cc(Cl)c3)(C(F)(F)F)C2)c2ccccc12 (stereo not drawn) [Compound 20]
very good to excellent: [1] | [2] | [3]; sprayed at 50 ppm | [3]; sprayed at 250 ppm

CC(O)CNC(=O)c1ccc(C2=NOC(c3cccc(C(F)(F)F)c3)(C(F)(F)F)C2)c2ccccc12 (mixture of isomers) [Compound 36]
very good to excellent: [1] | [2] | [3]; sprayed at 250 ppm

CSCC(C)NC(=O)c1ccc(C2=NOC(c3cc(Cl)cc(Cl)c3)(C(F)(F)F)C2)c2ccccc12 (mixture of isomers) [Compound 29]
very good to excellent: [1] | [2] | [3]; sprayed at 50 ppm | [3]; sprayed at 250 ppm

CC(NC(=O)CNC(=O)c1ccc(C2=NOC(c3cc(Cl)cc(Cl)c3)(C(F)(F)F)C2)c2ccccc12)C(F)(F)F (mixture of isomers) [Compound 122]
very good to excellent: [1] | [2] | [3]; sprayed at 50 ppm | [3]; sprayed at 250 ppm

CCNC(=O)C(C)NC(=O)c1ccc(C2=NOC(c3cc(Br)cc(C(F)(F)F)c3)(C(F)(F)F)C2)c2ccccc12 (mixture of isomers) [Compound 142]
very good to excellent: [1] | [2] | [3]; sprayed at 50 ppm

CC(C)NC(=O)CNC(=O)c1ccc(C2=NOC(c3cc(Br)cc(C(F)(F)F)c3)(C(F)(F)F)C2)c2ccccc12 (racemic) [Compound 53]
very good to excellent: [1] | [2] | [3]; sprayed at 50 ppm | [3]; sprayed at 250 ppm

Reference: patent publication US8410153B2, “Naphthalene isoxazoline invertebrate pest control agents” (E.I. du Pont de Nemours and Company, priority 2007, dated 2013)
